The subject of experiment [1] is cyclins A and B1. The experiment is described as follows: Cyclin expression in MDA-MB231 cells (ribonuclease protection assay, Western blot). The class given is cell-based, human. As to the method: To explore the effects on Notch-1 siRNA on the expression of cyclins, the main regulators of cell cycle progression, ribonuclease protection assays and Western blots on Notch-1 siRNA-treated cells were performed. Transfection of the MBA-MD231 cells with Notch-1 siRNA (5′-AAGTGTCTGAGGCCAGCAAGA-3′) (SEQ ID NO. 1) or control siRNA (5′-AACAGTCGCGTTTGCGACTGG-3′) (SEQ ID NO: 5), was performed as described above. Ribonuclease protection assays were performed by first preparing total RNA using a RNeasy Mini kit (QIAGEN Cat. #74104) according to the manufacturer's instructions. The multi-probe template set hCYC-1 (containing DNA templates for cyclin A, cyclin B, cyclin C, cyclin D1, cyclin D2, cyclin D3, cyclin A1 L32 and GAPDH) was purchased from BD Biosciences (Cat. # 556189). The DNA template was used to synthesize a [^32P]UTP (10 mCi/ml, Amersham Bioscience) labelled probe in the presence of a GACU pool using a […] RNA-polymerase (BD Bioscience RiboQuant RPA starter package, Cat. # 556144). Hybridization with 20 μg of each target RNA was performed at 56° C. overnight, followed by digestion with RNAse A and T1 according to the BD Bioscience standard protocol. After proteinase K treatment, samples were precipitated, loaded on a 4.75% acrylamide-urea gel, and run at 55 W with 0.5×TBE. Gels were dried in the gel dryer under vacuum for 2 h at 90° C. Then gels were exposed on Kodak film (Eastman Kodak, Rochester, N.Y.) with intensifying screens and developed at −70° C. Western blots were performed as described above. […] Western blot data confirmed these findings. […] CDK1 levels were only modestly affected. Cyclin A/cdk2 phosphorylates E2F-1/DP complexes at the end of S-phase, inactivating them. This prevents a re-initiation of DNA replication and assures that the genome is replicated only once at each S phase. Failure of cyclin A/cdk2 to inactivate E2F results in inappropriately persistent E2F activity, which may lead to apoptosis. E2F-1 is known to upregulate its own transcription. […]

Experiment [2] concerns RPMI8226 myeloma cells. The experiment is described as follows: Apoptosis of myeloma cell line RPMI8226 (Annexin V-FITC). The experiment is classed as cell-based. Particulars: for apoptotic response: after 18 hrs. As to the method: (§1) The cells were evaluated for induction of NOXA and an increase in cleaved caspase 3, by Western blot analysis and for cell viability using APO TARGET Annexin V-FITC staining kits (Biosource) as described above. The caspase 3 antibody was purchased from Abcam (Cambridge, Mass.). […] At a concentration of 10 μM, bortezomib induces approximately equal NOXA levels compared to the other proteasome inhibitor tested (MG-132) and the dual inhibitor z-Leu-Leu-Nle-CHO. The induction of NOXA coincided with the appearance of cleaved caspase 3, which is involved in the final stage of cell death. […] FIG. 12 is graph showing representative results from bortezomib treatment. The induction of apoptosis is concentration-dependent (FIG. 12); with doses as low as 0.01 μM bortezomib trigger significant apoptosis (p<0.05).

Experiment [3] concerns NOXA. Briefly: NOXA induction in multiple myeloma cell lines (Western blot). The class given is cell-based. Particulars: RPMI8226 and U266; 24 hours; bortezomib 0.01 to 10 μM, MG-132 10 μM, z-Leu-Leu-Nle-CHO 10 μM. The method, then: as §1, with “Two different multiple myeloma cell lines (RMP18226 and U266) (ATCC, Rockville, Md.) were treated for 24 hours with various concentrations of the proteasome inhibitors bortezomib (0.01 to 10 μM) and MG-132 (10 μM), or the dual inhibitor z-Leu-Leu-Nle-CHO (10 μM). The cells” for “The cells”
A general note: In western blotting, separated proteins are transferred to a membrane and probed.

Square brackets hold non-standard residues; d marks the D form. Peptide text beside a SMILES is read from it. * marks the point of attachment. Nle = CCCC[C@H](N)C(=O)O; Cbz = O=C(OCc1ccccc1)*

Regarding “5′-AAGTGTCTGAGGCCAGCAAGA-3′ [Notch-1 siRNA]”, in experiment [1], the “cyclin B1 protein (Western blot)” value is “striking decrease in the steady state levels of cyclin B1 at 48 hours”; the “cyclin mRNA expression (ribonuclease protection assay)” value is “decreases the expression of mRNAs for cyclins B1 and A, but not C, D, or A1”.
`CC(C)C[C@@H](C=O)NC(=O)[C@H](CC(C)C)NC(=O)[C@H](CC(C)C)NC(=O)OCc1ccccc1` [MG-132, benzoxycarbonyl-Leucyl-Leucyl-Leucyl-aldehyde] (Cbz-Leu-Leu-Leu-aldehyde): the apoptotic response result in experiment [2] is “triggered significant apoptotic response after 18 hrs”. Also, the NOXA induction result in experiment [3] was “found to induce NOXA”.
Take `CC(C)C[C@H](NC(=O)[C@H](Cc1ccccc1)NC(=O)c1cnccn1)B(O)O` [bortezomib, N-(2-pyrazine)carbonyl-L-phenylalanine-L-leucine boronic acid]: in experiment [2], the “lowest dose triggering significant apoptosis (p<0.05)” value is 0.01 µM and the apoptotic response entry is given as “triggered significant apoptotic response after 18 hrs”. For the same molecule, the NOXA induction result in experiment [3] is recorded as “induces NOXA in a concentration dependent manner”.
As for `CCCC[C@@H](C=O)NC(=O)[C@H](CC(C)C)NC(=O)[C@H](CC(C)C)NC(=O)OCc1ccccc1` [z-Leu-Leu-Nle-CHO, N-benzyloxycarbonyl-leucyl-leucyl-norleucinal] (Cbz-Leu-Leu-[Nle]-aldehyde), the apoptotic response entry in experiment [2] was “triggered significant apoptotic response after 18 hrs”. The NOXA induction entry in experiment [3] was “found to induce NOXA”. Also, the “cyclin A and cyclin B protein (Western blot)” value in experiment [1] (0.5 or 1 μM, 24 h) is recorded as “dramatically reduced the levels of cyclin A protein at 0.5 μM, whereas cyclin B was decreased at 1 μM”.

Values taken from patent US20080220416A1, “Compositions for Inhibiting Cell Growth and Inducing Apoptosis in Cancer Cells and Methods of Use Thereof” (THE BOARD OF TRUSTEES OF THE UNIVERSITY OF ILLINOI, priority 2004, published 2008).
